The source of these data is patent US20240247301A1, “DIAGNOSTIC ASSAY FOR CLASSIC INBORN GALACTOSEMIA” (Ohio State Innovation Foundation, priority 2022, published 2024).

Values joined by “and” are separate entries in the source; they are usually repeats but may differ in a detail not shown here. Identical values can stand only once. Like-named read-outs stand apart in the source and are kept apart here.

Assay [1] deals with T1, Duarte GalT (galactose-1-phosphate uridylyltransferase, Duarte variant) (Homo sapiens, UniProt P07902, N314D).
T1 construct: coupled to YidA or PGM-G6PDH (helper enzymes)
The experiment in a line: Duarte GalT-YidA coupled assay (SUMO tag removed from YidA). Format: biochemical. As for the experimental part: Next, it was sought to obtain recombinant GalT for proof-of-concept assays. The ready availability of the Duarte GalT clone from Addgene (GALTA-c001) led to use of this enzyme in the current studies.
(§1) Transformation and overexpression of GalT were performed as described elsewhere (Lai et al. 2021). For purification, a single bacterial colony expressing GalT was used to inoculate 2.5 mL of Dynamite growth medium (Taylor et al. 2017) supplemented with […] kanamycin and grown overnight at 37° ° C. with shaking. This saturated overnight culture was used to seed 250 mL of fresh dynamite medium containing the antibiotic. […]
(§2) Recombinant GalT was purified using the same protocol as that described above for YidA. The concentration of the His6-tagged GalT was determined using a molar extinction coefficient (85,620 M^−1 cm^−1) at 280 nm, and the final preparation was stored at −80° C. in small aliquots, which were subsequently thawed immediately before use in biochemical assays.
These 2-μL aliquots were added to a 384-well plate which were pre-dispensed to test wells 18 μL of water and 5 μL of malachite green reagent. […] To determine the Km and kcat values, the initial velocity calculated at each substrate concentration was subject to the Michaelis-Menten curve-fitting option in Kaleidagraph (Synergy Software).

In assay [2] the target is T1, Duarte GalT (galactose-1-phosphate uridylyltransferase, Duarte variant). Put plainly: Duarte GalT-PGM-G6PDH coupled assay (traditional). Format: biochemical. As for the experimental part: It was sought to compare the Duarte GalT activity determined using the YidA assay versus the existing method. To this end, measurements were conducted using the traditional PGM-G6PDH coupled assay (McCorvie et al. 2013). By titrating the coupled enzymes, the threshold that permits the most sensitive detection was first determined.
as §1, §2
An NADH standard curve (data not shown) was generated using relative fluorescence units (RFUs) versus different concentrations of NADH and used as a reference for calculating the NADH produced from the Duarte GalT-PGM-G6PDH coupled assay. […]

The test system of assay [3] is wild-type GalT (galactose-1-phosphate uridylyltransferase). The note with it: cited from earlier work; for Km: read-out: Km (for Gal-1-P).
The target in assay [4] is Salmonella typhimurium YidA, recombinant wild type, SEQ ID NO: 1 (Salmonella enterica, UniProt Q8ZKY8). Put plainly: YidA phosphatase activity (malachite green), dephosphorylation of Glc-1-P. The format is biochemical. The text has this: The sugar phosphate phosphatase produced from an engineered cell can be identical to a naturally occurring one, such as YidA or YihX, but placed within a cell in which it is not naturally produced. Examples of this approach are given throughout. The sequence for YidA from Salmonella typhimurium can be found, for example, in NC_492731.1. This sequence corresponds to SEQ ID NO: 1. The gene ID is 1255358. The sequence for YihX from Salmonella typhimurium can be found, for example, in NC_462906.1. This corresponds to SEQ ID NO: 2. The gene ID is 1255552. In one example, genes encoding these proteins can be placed within a cell in which it is not naturally occurring.
Nearly homogeneous recombinant Salmonella YidA by overexpressing it in E. coli SixPack cells were obtained (Lipinszki et al. 2018) (FIG. 3A). N-terminal fusions with a small ubiquitin-like modifier (SUMO) domain were engineered to enhance solubility (Marblestone et al. 2006) and a His6 tag to facilitate affinity purification (FIG. 3A). […] Since YidA is a Mg^2+-dependent phosphatase, its activity with Glc-1-P in the presence of 0-5 mM MgCl2 was first tested and determined that 3 mM MgCl2 was optimal (FIG. 5). […]

Assay [5] concerns the target Salmonella typhimurium YihX, recombinant wild type, SEQ ID NO: 2 (Salmonella enterica, UniProt Q7CPC8). Put plainly: Kinetic studies of YihX with Glc 1-P and Gal 1-P. Format: biochemical. As to conditions: YihX refolded after denaturing purification.
Description: Salmonella YihX was purified after overexpression in E. coli BL21 (DE3) pLysS cells. His6-YihX was purified under denaturing conditions using immobilized metal-affinity chromatography. Following purification, YihX was refolded by stepdown dialysis to remove the denaturant.
Another assay deals with E. coli YidA. As to conditions: Kuznetsova et al. 2006; cited from earlier work.
Setting [6] is: mean ± SD of three independent trials.
[7] abbreviates: McCorvie et al., 2013 (text: 2014).

Sequence of Salmonella typhimurium YidA, recombinant wild type, SEQ ID NO: 1 (Q8ZKY8 entry or part of it): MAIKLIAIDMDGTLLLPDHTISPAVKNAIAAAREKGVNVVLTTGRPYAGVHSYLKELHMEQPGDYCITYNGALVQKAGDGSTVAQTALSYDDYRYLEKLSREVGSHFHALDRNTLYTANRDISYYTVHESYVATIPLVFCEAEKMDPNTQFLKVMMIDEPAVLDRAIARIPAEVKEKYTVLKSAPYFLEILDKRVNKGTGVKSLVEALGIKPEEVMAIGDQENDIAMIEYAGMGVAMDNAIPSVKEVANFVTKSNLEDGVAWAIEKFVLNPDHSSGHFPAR
T1 sequence (P07902 whole entry N314D): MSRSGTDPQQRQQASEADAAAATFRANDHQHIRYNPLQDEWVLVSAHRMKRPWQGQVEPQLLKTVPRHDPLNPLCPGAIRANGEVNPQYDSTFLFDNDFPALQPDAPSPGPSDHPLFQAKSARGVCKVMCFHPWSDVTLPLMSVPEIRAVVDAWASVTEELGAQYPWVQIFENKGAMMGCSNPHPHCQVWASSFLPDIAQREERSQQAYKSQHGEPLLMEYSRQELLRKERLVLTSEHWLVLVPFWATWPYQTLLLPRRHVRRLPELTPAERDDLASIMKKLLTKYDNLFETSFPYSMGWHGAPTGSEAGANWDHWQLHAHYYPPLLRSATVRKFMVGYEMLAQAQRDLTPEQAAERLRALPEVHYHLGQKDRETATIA
Sequence of Salmonella typhimurium YihX, recombinant wild type, SEQ ID NO: 2 (Q7CPC8 entry or part of it): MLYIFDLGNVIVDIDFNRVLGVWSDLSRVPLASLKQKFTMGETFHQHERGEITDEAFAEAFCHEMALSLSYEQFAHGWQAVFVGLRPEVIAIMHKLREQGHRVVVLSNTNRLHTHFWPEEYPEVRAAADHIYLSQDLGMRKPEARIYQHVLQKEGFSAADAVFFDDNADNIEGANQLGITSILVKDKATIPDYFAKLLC

Take `O=P(O)(O)O[C@H]1O[C@H](CO)[C@H](O)[C@H](O)[C@H]1O` [Gal-1-P, galactose-1-phosphate]: the kcat in assay [1] (setting [6]) is 14.2 ± 1.33 s⁻¹ and 14.1 ± 0.75 s⁻¹; in assay [1] (single trials, ± curve-fit error, pH 8.0, 37° C., 1 mM UDP-glucose) it was 14.2 ± 1.33 s⁻¹ and 13.3 ± 1.05 s⁻¹ and 14.7 ± 1.17 s⁻¹; in assay [2] (setting [6]), 4.32 ± 0.12 s⁻¹; in assay [2] (single trials, ± curve-fit error, pH 8, 37° C., 0.8 mM UDP-glucose) it was 4.45 ± 0.2 s⁻¹ and 4.3 ± 0.067 s⁻¹ and 4.22 ± 0.2 s⁻¹; in assay [3] (Crews et al., 2000), 5,880 min^−1; in assay [3] (setting [7]), 816 min⁻¹. Moreover, the kcat in assay [3] (Tang et al., 2012, table value calculated from reported Vmax with 44 kDa) is 2,400 min^−1 and 2,122* min^−1. In addition, the Km was 400 µM in assay [3] (Crews et al., 2000); 290 µM in assay [3] (setting [7]); 1250 µM in assay [3] (Tang et al., 2012).

In the case of `O=P(O)(O)O[C@H]1O[C@H](CO)[C@@H](O)[C@H](O)[C@H]1O` [Glc-1-P, α-D-glucose-1-phosphate], the kcat in assay [4] (mean ± SE of two independent trials) is 14.2 ± 0.35 s⁻¹; in assay [4] (single trials, ± curve-fit error, pH 8, 37° C., 3 mM MgCl2) it was 13.9 ± 1.07 s⁻¹ and 14.6 ± 1.05 s⁻¹; in the assay with E. coli YidA, 20 s⁻¹. In assay [5], the “specificity for Glc 1-P over Gal 1-P” value stood at 36 fold. Moreover, the Km in the assay with E. coli YidA is 210 µM.

As usually defined, the kcat is the number of substrate molecules converted per active site and unit of time at saturation. Broadly, the Km is the concentration of substrate that gives half-maximal velocity.
